pIC50: −log10 of the molar value.
How the values were obtained:
[1] = target: Tyrosine-protein kinase JAK2 (Homo sapiens, UniProt O60674); parameters: species or system Sf21
[2] = target: Tyrosine-protein kinase JAK1 (Homo sapiens, UniProt P23458)
[3] = target: T1, Tyrosine-protein kinase JAK3 (Homo sapiens, UniProt P52333)
T1 sequence (P52333 whole entry): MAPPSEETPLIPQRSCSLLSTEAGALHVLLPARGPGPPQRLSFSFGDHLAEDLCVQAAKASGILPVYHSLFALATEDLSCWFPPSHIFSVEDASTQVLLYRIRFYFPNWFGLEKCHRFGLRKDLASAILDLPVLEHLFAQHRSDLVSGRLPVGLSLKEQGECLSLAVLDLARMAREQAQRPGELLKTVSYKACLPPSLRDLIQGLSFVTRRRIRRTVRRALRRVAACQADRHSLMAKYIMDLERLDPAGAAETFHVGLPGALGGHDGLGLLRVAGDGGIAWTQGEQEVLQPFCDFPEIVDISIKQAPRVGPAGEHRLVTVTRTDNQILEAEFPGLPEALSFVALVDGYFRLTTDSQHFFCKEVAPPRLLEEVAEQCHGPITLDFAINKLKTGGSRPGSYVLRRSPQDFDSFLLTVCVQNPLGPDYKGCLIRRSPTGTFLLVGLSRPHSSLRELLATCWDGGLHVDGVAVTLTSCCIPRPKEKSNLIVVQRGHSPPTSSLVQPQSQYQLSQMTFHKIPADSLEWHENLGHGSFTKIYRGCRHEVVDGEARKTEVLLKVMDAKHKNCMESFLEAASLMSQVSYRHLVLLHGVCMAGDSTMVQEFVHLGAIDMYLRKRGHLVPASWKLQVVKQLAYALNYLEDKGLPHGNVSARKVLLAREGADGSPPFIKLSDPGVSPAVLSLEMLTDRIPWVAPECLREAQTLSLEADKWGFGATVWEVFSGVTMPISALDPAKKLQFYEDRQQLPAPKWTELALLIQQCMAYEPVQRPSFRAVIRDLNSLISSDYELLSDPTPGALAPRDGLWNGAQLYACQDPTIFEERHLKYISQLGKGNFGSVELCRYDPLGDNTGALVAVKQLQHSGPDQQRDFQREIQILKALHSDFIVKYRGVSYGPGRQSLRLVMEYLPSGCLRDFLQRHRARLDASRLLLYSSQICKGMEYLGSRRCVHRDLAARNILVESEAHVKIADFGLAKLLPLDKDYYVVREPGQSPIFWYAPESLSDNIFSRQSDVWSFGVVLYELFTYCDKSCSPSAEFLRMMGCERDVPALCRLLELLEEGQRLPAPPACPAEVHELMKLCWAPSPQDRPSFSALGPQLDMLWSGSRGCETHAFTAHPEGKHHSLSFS

Sequence of Tyrosine-protein kinase JAK2 (O60674 whole entry): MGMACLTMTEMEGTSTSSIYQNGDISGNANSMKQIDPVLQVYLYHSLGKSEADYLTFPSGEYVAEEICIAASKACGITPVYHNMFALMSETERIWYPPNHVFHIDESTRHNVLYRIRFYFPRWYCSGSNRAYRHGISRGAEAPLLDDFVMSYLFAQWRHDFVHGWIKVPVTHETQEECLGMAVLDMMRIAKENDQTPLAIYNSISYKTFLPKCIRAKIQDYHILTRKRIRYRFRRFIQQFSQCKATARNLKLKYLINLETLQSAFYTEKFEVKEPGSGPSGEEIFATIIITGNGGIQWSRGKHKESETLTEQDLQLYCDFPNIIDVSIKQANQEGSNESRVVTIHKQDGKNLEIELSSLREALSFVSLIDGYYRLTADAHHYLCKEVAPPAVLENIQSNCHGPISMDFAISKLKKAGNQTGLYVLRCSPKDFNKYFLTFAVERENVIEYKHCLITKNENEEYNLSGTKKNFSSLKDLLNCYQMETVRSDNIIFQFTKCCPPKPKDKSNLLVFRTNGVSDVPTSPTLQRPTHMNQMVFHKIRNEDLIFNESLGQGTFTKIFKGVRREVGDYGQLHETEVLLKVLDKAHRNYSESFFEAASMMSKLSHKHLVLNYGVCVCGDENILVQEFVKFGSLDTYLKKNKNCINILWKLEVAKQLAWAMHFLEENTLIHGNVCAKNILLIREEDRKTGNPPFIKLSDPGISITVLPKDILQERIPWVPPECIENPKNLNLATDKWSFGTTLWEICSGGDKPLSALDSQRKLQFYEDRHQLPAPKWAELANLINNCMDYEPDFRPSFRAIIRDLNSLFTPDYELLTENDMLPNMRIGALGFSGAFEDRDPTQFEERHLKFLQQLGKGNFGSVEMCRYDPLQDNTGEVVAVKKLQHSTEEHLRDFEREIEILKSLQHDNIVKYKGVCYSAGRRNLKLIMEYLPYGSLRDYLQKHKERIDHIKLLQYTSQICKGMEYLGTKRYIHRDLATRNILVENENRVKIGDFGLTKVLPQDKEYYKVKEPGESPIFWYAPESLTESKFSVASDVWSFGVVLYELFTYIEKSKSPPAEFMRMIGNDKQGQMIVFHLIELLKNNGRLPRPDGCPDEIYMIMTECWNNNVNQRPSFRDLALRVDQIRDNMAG
Sequence of Tyrosine-protein kinase JAK1 (P23458 whole entry): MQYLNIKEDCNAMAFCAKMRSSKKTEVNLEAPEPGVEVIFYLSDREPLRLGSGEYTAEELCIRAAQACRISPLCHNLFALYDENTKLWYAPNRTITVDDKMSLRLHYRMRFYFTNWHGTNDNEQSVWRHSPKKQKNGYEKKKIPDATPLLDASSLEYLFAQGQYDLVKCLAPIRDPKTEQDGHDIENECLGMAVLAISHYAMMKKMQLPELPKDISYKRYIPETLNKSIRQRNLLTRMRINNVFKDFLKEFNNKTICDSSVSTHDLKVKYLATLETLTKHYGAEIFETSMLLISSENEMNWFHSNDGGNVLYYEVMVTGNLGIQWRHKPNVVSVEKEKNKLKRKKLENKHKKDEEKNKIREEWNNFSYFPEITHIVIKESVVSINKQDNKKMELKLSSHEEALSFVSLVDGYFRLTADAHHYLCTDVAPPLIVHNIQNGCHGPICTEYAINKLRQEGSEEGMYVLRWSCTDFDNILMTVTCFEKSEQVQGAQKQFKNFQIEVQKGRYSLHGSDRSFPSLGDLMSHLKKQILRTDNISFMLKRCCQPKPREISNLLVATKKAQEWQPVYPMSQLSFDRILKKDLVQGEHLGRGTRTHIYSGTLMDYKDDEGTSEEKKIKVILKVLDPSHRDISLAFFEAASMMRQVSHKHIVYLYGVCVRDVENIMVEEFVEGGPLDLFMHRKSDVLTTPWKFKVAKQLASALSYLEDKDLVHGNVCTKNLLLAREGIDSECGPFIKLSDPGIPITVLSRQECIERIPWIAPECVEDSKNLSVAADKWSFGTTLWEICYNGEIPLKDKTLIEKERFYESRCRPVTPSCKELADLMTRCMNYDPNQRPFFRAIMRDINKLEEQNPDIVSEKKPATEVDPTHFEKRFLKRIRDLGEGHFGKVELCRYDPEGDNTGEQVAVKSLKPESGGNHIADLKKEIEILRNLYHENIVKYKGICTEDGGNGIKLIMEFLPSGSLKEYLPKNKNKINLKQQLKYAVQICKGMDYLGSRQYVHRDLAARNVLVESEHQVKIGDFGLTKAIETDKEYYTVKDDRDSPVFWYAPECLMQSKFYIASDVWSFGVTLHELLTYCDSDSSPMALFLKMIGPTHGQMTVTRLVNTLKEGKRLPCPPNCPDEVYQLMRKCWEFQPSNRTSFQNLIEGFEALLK

## CNc1nc(Nc2cnn(C(CC(N)=O)C3CCCCC3)c2)ncc1C(F)(F)F (stereo not drawn)
[1]
  pIC50: 7.01
[2]
  pIC50: 6.17
[3]
  pIC50: 7.41

From ChEMBL document CHEMBL3797141, “Design, synthesis and preliminary biological evaluation of 4-aminopyrazole derivatives as novel and potent JAKs inhibitors” (Bioorg Med Chem, 2016)
